Experimental data taken from US20250099448A1, “HETEROCYCLIC COMPOUNDS” (Hoffmann-La Roche Inc., priority 2022, published 2025).
pIC50: −log10 of the molar value.

These compounds were tested against T1, MAGL protein (Homo sapiens, UniProt Q99685) (assay: 2-AG assay: MAGL inhibitory activity by hydrolysis of 2-arachidonoylglycerol to arachidonic acid, followed by mass spectrometry). Conditions: 8 μM 2-arachidonoylglycerol, 15 min preincubation, 30 min reaction at RT, RapidFire MS readout.
T1 sequence (Q99685 1-303): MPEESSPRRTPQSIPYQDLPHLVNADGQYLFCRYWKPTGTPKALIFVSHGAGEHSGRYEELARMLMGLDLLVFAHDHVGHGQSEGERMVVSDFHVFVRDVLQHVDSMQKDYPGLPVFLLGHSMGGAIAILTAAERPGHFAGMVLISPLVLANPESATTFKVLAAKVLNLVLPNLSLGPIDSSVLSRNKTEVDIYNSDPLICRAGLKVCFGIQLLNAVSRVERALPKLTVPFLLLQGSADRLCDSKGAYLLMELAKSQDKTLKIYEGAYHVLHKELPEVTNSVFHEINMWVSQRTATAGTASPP
Assay type: biochemical
How it was run: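 Activity was measured by RapidFire SPE–triple-quad MS as the ratio of arachidonic acid to d8-arachidonic acid after 2-AG hydrolysis (8 μM substrate, 30 min, RT, acetonitrile quench). Compounds, tested from 12.5 μM down to […], were first preincubated 15 min with MAGL in TRIS/EDTA/Tween-20 buffer containing 2.5% DMSO.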

pIC50 | SMILES
7.21 | O=C(N1CC2(CC(c3nnc(C4CC4)[nH]3)C2)C1)N1CC2(CN(Cc3ccc(C(F)(F)F)nn3)C2)C1 [compound 160]
7.10 | O=C(N1CC2(CC(c3nnc(C4CC4)[nH]3)C2)C1)N1CC2(CN(Cc3ncc(C(F)(F)F)cn3)C2)C1 [compound 161]
7.49 | O=C(N1CC2(CC(c3nnc(C4CC4)[nH]3)C2)C1)N1CC2(CN(Cc3cnc(C(F)(F)F)nc3)C2)C1 [compound 162]
8.39 | O=C(N1CC2(CC(c3nnc(C4CC4)[nH]3)C2)C1)N1CC2(CN(Cc3ccc(C(F)(F)F)cn3)C2)C1 [compound 163]
7.74 | O=C(N1CC2(CC(c3nnc(C4CC4)[nH]3)C2)C1)N1CC2(CN(Cc3cnc(C(F)(F)F)cn3)C2)C1 [compound 164]
7.51 | O=C(N1CC2(CC(c3nnc(C4CC4)[nH]3)C2)C1)N1CC2(CN(Cc3ncc(F)cc3F)C2)C1 [compound 165]
9.21 | O=C(N1CC2(CC(c3nnc(C4CC4)[nH]3)C2)C1)N1CC2(CN(Cc3ccc(F)cc3C(F)(F)F)C2)C1 [compound 169]
7.55 | NS(=O)(=O)c1ccccc1CN1CC2(C1)CN(C(=O)N1CC3(CC(c4nnc(C5CC5)[nH]4)C3)C1)C2 [compound 170]
6.64 | CNC(=O)c1ccccc1CN1CC2(C1)CN(C(=O)N1CC3(CC(c4nnc(C5CC5)[nH]4)C3)C1)C2 [compound 173]
7.39 | COCn1cnc(-c2ccccc2CN2CC3(C2)CN(C(=O)N2CC4(CC(c5nnc(C6CC6)[nH]5)C4)C2)C3)n1 [compound 174]
7.46 | COCn1ccnc1-c1ccccc1CN1CC2(C1)CN(C(=O)N1CC3(CC(c4nnc(C5CC5)[nH]4)C3)C1)C2 [compound 175]
8.06 | O=C(N1CC2(CCN(Cc3ccc(C(F)(F)F)nc3)CC2)C1)N1CC2(CC(c3nnc(C4CC4)[nH]3)C2)C1 [compound 176]
9.42 | O=C(N1CC2(CCN(Cc3ccc(C(F)(F)F)cc3F)CC2)C1)N1CC2(CC(c3nnc(C4CC4)[nH]3)C2)C1 [compound 177]
8.74 | O=C(N1CC2(CCN(Cc3ccc(C(F)(F)F)cn3)CC2)C1)N1CC2(CC(c3nnc(C4CC4)[nH]3)C2)C1 [compound 178]
7.47 | CS(=O)(=O)c1ccc(CN2CCC3(CC2)CN(C(=O)N2CC4(CC(c5nnc(C6CC6)[nH]5)C4)C2)C3)cc1 [compound 179]
9.04 | O=C(N1CC2(CCN(Cc3cccc(S(=O)(=O)C(F)(F)F)c3)CC2)C1)N1CC2(CC(c3nnc(C4CC4)[nH]3)C2)C1 [compound 180]
7.44 | CS(=O)(=O)c1cccc(CN2CCC3(CC2)CN(C(=O)N2CC4(CC(c5nnc(C6CC6)[nH]5)C4)C2)C3)c1 [compound 181]
8.23 | O=C(N1CC2(CC(c3nnc(C4CC4)[nH]3)C2)C1)N1CC2(CCN(Cc3ccc(C(F)(F)F)cn3)C2)C1 [compound 182]
7.50 | O=C(N1CC2(CC(c3nnc(C4CC4)[nH]3)C2)C1)N1CC2(CCN(Cc3ccc(C(F)(F)F)nn3)C2)C1 [compound 183]
7.93 | O=C(N1CC2(CC(c3nnc(C4CC4)[nH]3)C2)C1)N1CC2(CCN(Cc3cnc(C(F)(F)F)cn3)C2)C1 [compound 184]
8.78 | O=C(N1CC2(CC(NCc3ccc(C(F)(F)F)cc3F)C2)C1)N1CC2(CC(c3nnc(C4CC4)[nH]3)C2)C1 [compound 185]

pIC50 | SMILES
7.15 | O=C(N1CC(NCc2cc(F)ccc2C(F)(F)F)C1)N1CC2(CC(c3nnc(C4CC4)[nH]3)C2)C1 [compound 187]
7.69 | O=C(N1CC(NCc2cc(C(F)(F)F)ccc2Cl)C1)N1CC2(CC(c3nnc(C4CC4)[nH]3)C2)C1 [compound 188]
7.41 | O=C(N1CC(NCc2ccc(OC(F)(F)F)cc2F)C1)N1CC2(CC(c3nnc(C4CC4)[nH]3)C2)C1 [compound 189]
7.90 | O=C(N1CC(NCc2ccc(C(F)(F)F)cc2Cl)C1)N1CC2(CC(c3nnc(C4CC4)[nH]3)C2)C1 [compound 190]
7.34 | O=C(N1CC(NCc2ccc(OC(F)(F)F)cc2)C1)N1CC2(CC(c3nnc(C4CC4)[nH]3)C2)C1 [compound 191]
7.63 | O=C(N1CC(NCc2ccc(C(F)(F)F)cc2F)C1)N1CC2(CC(c3nnc(C4CC4)[nH]3)C2)C1 [compound 192]
7.34 | O=C(N1CC(NCc2ccc(C(F)(F)F)c(F)c2)C1)N1CC2(CC(c3nnc(C4CC4)[nH]3)C2)C1 [compound 193]
7.74 | O=C(N1CC(NCc2cc(Cl)cc(C(F)(F)F)c2)C1)N1CC2(CC(c3nnc(C4CC4)[nH]3)C2)C1 [compound 194]
6.89 | O=C(N1CC(NCc2cc(C(F)(F)F)ccc2F)C1)N1CC2(CC(c3nnc(C4CC4)[nH]3)C2)C1 [compound 195]
6.95 | O=C(N1CC(NCc2ccc(F)cc2C(F)(F)F)C1)N1CC2(CC(c3nnc(C4CC4)[nH]3)C2)C1 [compound 196]
7.81 | COc1cc(C(F)(F)F)ccc1CNC1CN(C(=O)N2CC3(CC(c4nnc(C5CC5)[nH]4)C3)C2)C1 [compound 197]
6.75 | O=C(N1CC(NCc2ccc(C(F)(F)F)cc2F)C1)N1CC2(CC(c3nnc(C4(O)CC4)[nH]3)C2)C1 [compound 198]
7.50 | O=C(N1CC(NCc2cc(Cl)ccc2C(F)(F)F)C1)N1CC2(CC(c3nnc(C4CC4)[nH]3)C2)C1 [compound 199]
7.16 | O=C(N1CC(N(Cc2ccc(C(F)(F)F)cc2F)C2CC2)C1)N1CC2(CC(c3nnc(C4CC4)[nH]3)C2)C1 [compound 200]
7.77 | O=C(N1CC(N(Cc2ccc(C(F)(F)F)cc2F)CC2CC2)C1)N1CC2(CC(c3nnc(C4CC4)[nH]3)C2)C1 [compound 201]
6.48 | O=C(N1CC(NS(=O)(=O)c2cccc(C(F)(F)F)c2)C1)N1CC2(CC(c3nnc(C4CC4)[nH]3)C2)C1 [compound 202]
6.44 | O=C(N1CC(NS(=O)(=O)c2ccc(C(F)(F)F)cc2F)C1)N1CC2(CC(c3nnc(C4CC4)[nH]3)C2)C1 [compound 203]
5.87 | O=C(N1CC(NS(=O)(=O)C2CCC(F)(F)CC2)C1)N1CC2(CC(c3nnc(C4CC4)[nH]3)C2)C1 [compound 204]
6.81 | O=C(N1CC(NS(=O)(=O)c2cccc(OC(F)(F)F)c2)C1)N1CC2(CC(c3nnc(C4CC4)[nH]3)C2)C1 [compound 205]
6.63 | O=C(N1CC(NCc2ccc(C(F)(F)F)cc2F)C1)N1CC2(CC(c3nnc(C4CCC4)[nH]3)C2)C1 [compound 206]
7.22 | O=C(N1CC(n2cc(OCC(F)(F)F)cn2)C1)N1CC2(CC(c3nnc(C4CC4)[nH]3)C2)C1 [compound 207]

pIC50 | SMILES
7.67 | O=C(N1CC(CNS(=O)(=O)c2cccc(C(F)(F)F)c2)C1)N1CC2(CC(c3nnc(C4CC4)[nH]3)C2)C1 [compound 208]
6.50 | O=C(N1CC(CNS(=O)(=O)c2ccc(C(F)(F)F)cc2)C1)N1CC2(CC(c3nnc(C4CC4)[nH]3)C2)C1 [compound 209]
6.32 | O=C(N1CC(CNS(=O)(=O)c2ccc(C(F)(F)F)cc2)C1)N1CC2(CC(c3nnc(C4(O)CC4)[nH]3)C2)C1 [compound 210]
6.87 | O=C(N1CC(CNS(=O)(=O)c2cccc(C(F)(F)F)c2)C1)N1CC2(CC(c3nnc(C4(O)CC4)[nH]3)C2)C1 [compound 211]
7.24 | CC(C)(C)CS(=O)(=O)N1CC2(CN(C(=O)N3CC4(CC(c5nnc(C6CC6)[nH]5)C4)C3)C2)C1 [compound 212]
7.35 | CC1(NS(=O)(=O)N2CC3(CN(C(=O)N4CC5(CC(c6nnc(C7CC7)[nH]6)C5)C4)C3)C2)CC1 [compound 213]
7.70 | O=C(N1CC2(CC(c3nnc(C4CC4)[nH]3)C2)C1)N1CC2(C1)CN(S(=O)(=O)NCc1ccc(F)cc1)C2 [compound 214]
7.76 | O=C(N1CC2(CC(c3nnc(C4CC4)[nH]3)C2)C1)N1CC2(C1)CN(S(=O)(=O)NC1(C(F)(F)F)CC1)C2 [compound 215]
7.96 | O=C(N1CC2(CC(c3nnc(C4CC4)[nH]3)C2)C1)N1CC2(C1)CN(S(=O)(=O)NCC1(C(F)(F)F)CC1)C2 [compound 216]
6.76 | O=C(N1CC2(CC(c3nnc(C4CC4)[nH]3)C2)C1)N1CC2(C1)CN(c1cnc(C(F)(F)F)cn1)C2 [compound 218]
6.04 | O=C(N1CC(CN2CCC(F)(F)CC2)C1)N1CC2(CC(c3nnc(C4CC4)[nH]3)C2)C1 [compound 219]
6.68 | O=C(N1CC2(CC(c3nnc(C4CC4)[nH]3)C2)C1)N1CC2(CC(N3CCS(=O)(=O)CC3)C2)C1 [compound 220]
8.07 | O=C(N1CC2(CC(NCC3(C(F)(F)F)CC3)C2)C1)N1CC2(CC(c3nnc(C4CC4)[nH]3)C2)C1 [compound 221]
7.39 | O=C(N1CC2(CC(NC(=O)C3(C(F)(F)F)CC3)C2)C1)N1CC2(CC(c3nnc(C4CC4)[nH]3)C2)C1 [compound 222]
9.48 | O=C(N1CC2(CC(NS(=O)(=O)c3ccc(C(F)(F)F)cc3)C2)C1)N1CC2(CC(c3nnc(C4CC4)[nH]3)C2)C1 [compound 223]
9.15 | O=C(N1CC2(CC(NS(=O)(=O)c3ccccc3C(F)(F)F)C2)C1)N1CC2(CC(c3nnc(C4CC4)[nH]3)C2)C1 [compound 224]
8.44 | CC(C)(C)CS(=O)(=O)NC1CC2(C1)CN(C(=O)N1CC3(CC(c4nnc(C5CC5)[nH]4)C3)C1)C2 [compound 225]
9.96 | O=C(N1CC(c2ccc(C3(C(F)(F)F)CC3)cc2)C1)N1CC2(CC(c3nnc(C4CC4)[nH]3)C2)C1 [compound 226]
9.04 | O=C(N1CC(c2ccc(C3(C(F)(F)F)CC3)cc2)C1)N1CC2(CC(c3nnc(C4(O)CC4)[nH]3)C2)C1 [compound 227]
